{"source": "patent US20230133114A1", "about": "“COMPOSITIONS AND METHODS CONTAINING REDUCED NICOTINAMIDE RIBOSIDE FOR PREVENTION AND TREATMENT OF VIRAL AND BACTERIAL INFECTIONS” (SOCIETE DES PRODUITS NESTLE S.A., priority 2020, published 2023)", "key": {"[1]": {"experiment": "Stability of NRH or NR spiked in isolated mouse plasma", "type": "in vitro ADME", "settings": "for levels of spiked compound in plasma: isolated mouse plasma, 2 h of incubation", "excerpt": "(§1) Levels of NRH and other NAD-related metabolites in biological samples were obtained by using a cold liquid-liquid extraction using a mixture of methanol:water:chloroform in 5:3:5 (v/v), from which the polar phase was recovered for hydrophilic interaction ultra-high performance liquid chromatography mass spectrometry (UHPLC-MS) analysis. The UHPLC consisted of a binary pump, a cooled autosampler, and a column oven (DIONEX Ultimate 3000 UHPLC+ Focused, Thermo Scientific), connected to a triple quadrupole spectrometer (TSQ Vantage, Thermo Scientific) equipped with a heated electrospray ionisation (H-ESI) source. Of each sample, 2 µL were injected into the analytical column (2.1 mm × 150 mm, 5 µm pore size, 200 Å HILICON iHILIC®-Fusion(P)), guarded by a pre-column (2.1 mm × 20 mm, 200 Å HILICON iHILIC®-Fusion(P) Guard Kit) operating at 35° C. The mobile phase (10 mM ammonium acetate at pH 9, A, and acetonitrile, B) was pumped at 0.25 mL/min flow rate over a linear gradient of decreasing organic solvent (0.5-16 min, 90-25% B), followed by re-equilibration for a total run time of 30 min. The MS operated in positive mode at 3500 V with multiple reaction monitoring (MRM). The software Xcalibur v4.1.31.9 (Thermo Scientific) was used for instrument control, data acquisition and processing. Retention time and mass detection was confirmed by authentic standards.\n(§2) NR degradation to NAM has been proposed as a limitation for its pharmacological efficacy. To evaluate whether NRH was also susceptible to degradation to NAM, we spiked NRH or NR in isolated mouse plasma. […] We also tested the stability of NRH in other matrixes. […] Finally, we also certified NRH stability in water (pH=7, at room temperature) for 48 h."}, "[2]": {"experiment": "Stability in FBS supplemented media", "type": "in vitro ADME", "description": "as §2"}, "[3]": {"experiment": "Circulating NRH, NR and NAM after IP injection in mice", "type": "in vivo", "excerpt": "as §1, with “standards. […]” for “standards.”"}, "NAD+ levels [4]": {"test_system": "NAD+ levels", "experiment": "Tissue NAD+ levels after IP injection in mice", "type": "in vivo", "settings": "IP 500 mg/kg, after 1 h", "excerpt": "as §1\nThe above results prompted us to test whether NRH could act as an effective NAD+ precursor in vivo. For this, we first intraperitoneally (IP) injected mice with either NR or NRH (500 mg/kg). […] Importantly, NRH was detectable in circulation after IP injection."}, "[5]": {"experiment": "Plasma NRH, NR and NAM after oral administration in mice", "type": "in vivo", "excerpt": "as §1\nOral administration of NRH led to very similar results to those observed after IP administration. […] NRH was detectable in plasma 1 h after oral administration. In contrast, NR levels were undetectable at 1 h after NR administration."}, "Stability in water": {"experiment": "Stability in water", "type": "physicochemical", "settings": "pH=7, room temperature, 48 h", "description": "as §2"}, "Splenocytes": {"test_system": "Splenocytes", "experiment": "Intracellular NAD+ in splenocytes", "type": "cell-based", "settings": "splenocytes from 1 year old mice, 2 hours", "description": "Then, 2 hours later, intracellular NAD+ levels were measured. * indicates p<0.05 vs. Control (0 mM) group. […] Then, 2 hours later, intracellular NAD+ levels were measured as described above."}, "[6]": {"experiment": "NRH levels in lung after oral gavage", "type": "in vivo", "settings": "mice, oral gavage of stable isotope-labelled NRH 250 mg/kg, 2 hours", "description": "(§3) 8 week-old C57BI/6NTac mice were orally gavaged with either saline (as vehicle), and an stable isotope-labelled NRH (250 mg/kg). After 2 hours, NRH levels in the lung were evaluated. All results are expressed as mean +/-SE of n=4 mice per group, as areas under the signal by LC-MS analysis, corrected by total protein amount of tissue.\n(§4) Levels of NRH and other NAD-related metabolites in biological samples were obtained by using a cold liquid-liquid extraction using a mixture of methanol:water:chloroform in 5:3:5 (v/v), from which the polar phase was recovered for hydrophilic interaction ultra-high performance liquid chromatography mass spectrometry (UHPLC-MS) analysis. The UHPLC consisted of a binary pump, a cooled autosampler, and a column oven (DIONEX Ultimate 3000 UHPLC+ Focused, Thermo Scientific), connected to a triple quadrupole spectrometer (TSQ Vantage, Thermo Scientific) equipped with a heated electrospray ionisation (H-ESI) source. […]\nas §3, with “tissue (FIG. 4).” for “tissue.”"}, "[7]": {"experiment": "NRH levels in liver, kidney and muscle after oral gavage", "type": "in vivo", "settings": "mice, oral gavage 250 mg/kg, 2 hours", "description": "as §3, with “and” for “and an stable isotope-labelled”, “hours, liver, skeletal muscle and kidney” for “hours,”, “levels” for “levels in the lung”, “+/-SEM” for “+/-SE”\nas §1"}, "RAW 264.7 macrophages": {"test_system": "RAW 264.7 macrophages", "experiment": "Intracellular NAD+ in cultured RAW 264.7 macrophages", "type": "cell-based", "settings": "1 hour", "description": "RAW 264.7 macrophages were treated with dihydronicotinamide riboside (NRH) at the concentrations indicated. […] Control (0 mM) group. RAW 264.7 macrophages were treated with dihydronicotinamide riboside (NRH) at the concentrations indicated."}, "NAD+ levels [8]": {"test_system": "NAD+ levels", "experiment": "Hepatic NAD+ levels after oral administration in mice", "type": "in vivo", "settings": "oral administration (FIG. 2: 500 mg/kg, 1 hour)", "description": "8 week-old C57BI/6NTac mice were orally gavaged with either saline (as vehicle), NR (500 mg/kg) or NRH (500 mg/kg). After 1 hour, liver, skeletal muscle and kidney NAD^+ levels were evaluated. All results are expressed as mean +/-SEM of n=5 mice per group. * indicates statistical difference at p<0.05 vs. vs. saline-treated mice. # indicates statistical difference at p<0.05 vs. NR treated mice.\nas §4, with “source. Of each sample, 2 µL were injected into the analytical column (2.1 mm × 150 mm, 5 µm pore size, 200 Å HILICON iHILIC®-Fusion(P)), guarded by a pre-column (2.1 mm × 20 mm, 200 Å HILICON iHILIC®-Fusion(P) Guard Kit) operating at 35° C.” for “source.”"}, "[9]": {"test_system": "Mouse bone marrow derived macrophages", "experiment": "Intracellular NAD+ in cultured bone marrow derived macrophages", "type": "cell-based", "settings": "1 or 2 hours", "description": "Mouse bone marrow derived macrophages were treated with dihydronicotinamide riboside (NRH) at the concentrations indicated, using PBS as control. […] Control group. Mouse bone marrow derived macrophages were treated with dihydronicotinamide riboside (NRH) at the concentrations indicated, using PBS as control."}, "[10]": {"test_system": "Salmonella enterica serovar Typhimurium", "experiment": "Anti-bacterial response of monocyte-derived macrophages against Salmonella (CFU counts)", "type": "cell-based", "settings": "0.01 mM for 42 h prior to infection, MOI 10, 1 h; gentamicin 2 h", "description": "(§5) Monocyte-derived macrophages were treated with 0.01 mM NRH for 42 h prior to infection with Salmonella enterica serovar Typhimurium for 1 h using a multiplicity of infection of 10. Following infection, macrophages were treated with gentamicin for 2 h before cell lysis. Values show absolute colony forming unit (CFU) counts with each dot representing one donor and each line representing paired samples. Graphs show pooled data of 2 independent experiments with 2-3 donors/experiment.\nas §5, with “donors/experiment. (FIG. 5).” for “donors/experiment.”"}}, "note": "Where a name gives a salt, the structure may show the parent alone.", "data": [{"molecule": "NC(=O)c1ccc[n+]([C@@H]2O[C@H](CO)[C@@H](O)[C@H]2O)c1", "note": "[NR, 1-b-D-ribofuranosyl-3-pyridinecarboxamide salt, reference compound]", "values": [{"measurement": "levels of spiked compound in plasma", "setting": "[1]", "result": "decayed"}, {"measurement": "degradation to NAM in FBS supplemented media", "setting": "[2]", "result": "occurs"}, {"measurement": "NAM levels in circulation", "setting": "[3]; IP 500 mg/kg", "result": "highly increased"}, {"measurement": "NAD+ levels in kidney", "setting": "NAD+ levels [4]", "result": "increased"}, {"measurement": "NAD+ levels in liver", "setting": "NAD+ levels [4]", "result": "increased"}, {"measurement": "NAD+ levels in muscle", "setting": "NAD+ levels [4]", "result": "increased"}, {"measurement": "circulating NAM relative to that after NRH treatment", "setting": "[5]; C57BL/6NTac, mouse, in vivo, po, 1 h", "result": "~ 4 fold"}, {"measurement": "circulating NAM", "setting": "[5]; mouse, in vivo, po", "result": "large increases"}]}, {"molecule": "NC(=O)C1=CN([C@@H]2O[C@H](CO)[C@@H](O)[C@H]2O)C=CC1", "note": "[NRH, dihydronicotinamide riboside]", "values": [{"measurement": "stability in water", "setting": "Stability in water", "result": "stability"}, {"measurement": "levels of spiked compound in plasma", "setting": "[1]", "result": "remained stable"}, {"measurement": "NR production on incubation in isolated plasma", "setting": "[1]; isolated plasma", "result": "did not lead to NR production"}, {"measurement": "degradation to NAM in FBS supplemented media", "setting": "[2]", "result": "did not degrade to NAM"}, {"measurement": "NR in circulation", "setting": "[3]; after IP treatment, compared with NR injection", "result": "much higher levels than those detected after NR injection itself"}, {"measurement": "NAD+ levels in kidney", "setting": "NAD+ levels [4]", "result": "increased"}, {"measurement": "NAD+ levels in liver", "setting": "NAD+ levels [4]", "result": "increased"}, {"measurement": "NAD+ levels in muscle", "setting": "NAD+ levels [4]", "result": "increased"}, {"measurement": "intracellular NAD+ levels", "setting": "Splenocytes", "result": "increases NAD+"}, {"measurement": "NRH in lung", "setting": "[6]", "result": "efficient biodistribution in the lung"}, {"measurement": "NRH in kidney", "setting": "[7]", "result": "found intact, in high levels"}, {"measurement": "NRH in liver", "setting": "[7]", "result": "found intact, in high levels"}, {"measurement": "NRH in muscle", "setting": "[7]", "result": "found intact, in high levels"}, {"measurement": "intracellular NAD+ levels", "setting": "RAW 264.7 macrophages", "result": "increases NAD+"}, {"measurement": "effect on hepatic NAD+ levels", "setting": "NAD+ levels [8]", "result": "more potent effect on hepatic NAD+ levels than NR"}, {"measurement": "intracellular NAD+ levels", "setting": "[9]", "result": "increases NAD+"}, {"measurement": "NRH in plasma", "setting": "[5]; mice, 1 h after oral administration", "result": "detectable"}, {"measurement": "NRH concentration in plasma", "setting": "[5]; mice, after oral gavage", "result": "11.16 ± 1.74", "unit": "µM"}, {"measurement": "anti-bacterial macrophage response against salmonella", "setting": "[10]", "result": "able to augment anti-bacterial macrophage response"}]}]}
